Laboratory results as given in patent publication US9422238B2, “ICMT inhibitors” (National University of Singapore, priority 2012, dated 2016).
≈ marks a conversion by molar mass, not a printed value. Where “and” joins values, the source holds several entries; their conditions need not be identical. Equal values may be shown once. Read-outs that look alike come from different tables or passages of the source.

Experiments:
[1] = test system: Human hepatocellular carcinoma HepG2 cells; test: Cell viability (MTS, 72 h); type: cell-based
Procedure: Cell viability was determined from the expression:
The plot was constrained to ≧0 and ≦100%.
Human hepatocellular carcinoma HepG2 and human pancreatic cancer MIA PACA II cells were obtained from ATCC (Rockville, Md.). They were grown in DMEM (high glucose, Invitrogen) supplemented with 10% FBS, 50 μg/mL penicillin and 50 μg/mL streptomycin, 37° C., 5% CO2 until they reached 80-90% confluency, after which they were subcultured. Passage numbers were kept within 7-14 passages for both cell types.

physchem = details: for solubility at 24 h: 25 °C; for solubility at 24 h / solubility / solubility at 3 h: pH 7.4, aqueous buffer, kinetic from dmso stock
Procedure: The turbid solution was delivered to the filter plate, agitated for a specific time period and then filtered. The concentration of dissolved compound in the filtrate was determined by uv spectroscopy and referred to pre-constructed calibration curves for solubility determination.
(§1) Determination of aqueous solubility was carried out on Multiscreen® Solubility filter plates (Millipore-MSSLBPC10) from Millipore Corporation (MA, USA). The protocol (PC2445EN00, Millipore Corporation) was followed. Briefly, various concentrations of the test compound were prepared in Universal buffer (pH 7.4)/acetonitrile/DMSO. The UV absorbances of these solutions were obtained at a pre-determined wavelength and used to construct a calibration curve for the test compound. Next, a stock solution of the test compound in DMSO was prepared at a known concentration, diluted with Universal buffer (pH 7.4), dispensed into wells in the Multiscreen Solubility filter plate, and agitated for a period of time. The suspension is then filtered, the filtrate collected and diluted with acetonitrile to give the same solvent composition used to prepare the calibration solutions. The absorbance of the diluted filtrate was then read at the predetermined wavelength and the concentration of the filtrate (taken here to be equivalent to the solubility of the test compound) was determined from the calibration curve.
as §1, with “24 hours at room temperature (25 deg C.). […]” for “a period of time.”, “was” for “is then”, “was” for “was then”, “(equivalent” for “(taken here to be equivalent”, “curve. […] LCMS determinations were made on an Agilent 1200 Series HPLC linked to a AB Sciex Instruments 3200 Q TRAP LC/MS/MS. Separations were carried out on a Phenomenex Luna column [3u, C18(2), 100A, 5×4.6 mm]. […] Quantification was based on the ratio of peak areas of the daughter ion and the mother ion (M+H), normalized against the same ratio obtained for the internal standard. The solubility determinations were carried out in triplicates or more from two different stock solutions.” for “curve.”

[2] = test system: MDA-MB-231 human breast cells; test: Antiproliferative activity / cell viability (MTS, 72 h); details: Homo sapiens
Procedure: The relative number of the live cells was determined using the CellTiter® 96 AQueous One Solution Cell Proliferation Assay (Promega). Determinations were made in duplicates or triplicates.
Human breast cancer MDA-MB231, liver cancer HepG2 and lung fibroblast cells were purchased from ATCC (Rockville, Md.). MDA-MB231 cells and IMR-90 cells were grown in DMEM (Sigma Aldrich, Singapore) and EMEM (Sigma Aldrich, Singapore) respectively at 37° C., 5% CO2. DMEM was supplemented with 10% fetal bovine serum (Invitrogen, heat treated at 65 deg C., 30 min), 50 units/L penicillin-G and 50 μg/mL streptomycin. EMEM was supplemented with 10% fetal bovine serum (heat treated as above), 100 mg/L penicillin-G and 100 μg/mL streptomycin.
Cell viability was assessed using CellTitre 96® Aqueous One Solution (Promega, Madison, Wis.) containing the tetrazolium salt 3-(4,5-dimethylthiazol-2-yl)-5-(3-carboxymethoxyphenyl)-2-(4-sulfophenyl)-2H-tetrazolium (MTS). […] Final concentration of DMSO per well was maintained at 0.5% v/v. […] Cell viability was determined from the expression:
The plot was constrained to ≧0 and ≦100%. At least 3 independent determinations of IC50 were made using two different stock solutions of test compound.

[3] = In vitro stability in rat liver microsomes; type: in vitro ADME; details: for Half-life (min) / Intrinsic Clearance (μL/min/mg): NADPH; for half-life / microsomal CLint: male, pooled rat liver microsomes, pH 7.4, NADPH; for microsomal CLint: read-out: Intrinsic Clearance
Procedure: The mixture was preincubated for 5 min at 37° C. in a shaking water bath, after which the reaction was initiated by adding […] of 10 mM NADPH (freshly prepared in phosphate buffer) to give a final concentration of 1 mM NADPH in the mixture. Aliquots of 50 μL were withdrawn immediately on addition of NADPH (time 0) and subsequently at 5, 15, 30 and 45 min. […] The mixture was then centrifuged at 10,000×g to remove the protein and the content of the test compound in the supernatant was subsequently measured by LCMS.
For each test compound, the metabolic stability of a positive control, midazolam (5 μM) which is a known cytochrome P450 substrate, was concurrently determined to evaluate the adequacy of the experimental conditions. The stability of the test compound to microsomal degradation in the absence of NADPH was also monitored.
Separations were made on a C18 column (Luna 3u C18(2) 100A column (2.0×50 mm, i.d., 3 μM, Phenomenex, Aschaffenburg, Germany or Eclipse Plus C18 column, 4.6×150 mm, i.d., 3.5 μM Agilent Technologies, Palo Alto, Calif., USA) with a security guard cartridge (3.0×4 mm, Agilent Technologies, Palo Alto, Calif., USA). Mobile phase was 0.1% formic acid in acetonitrile-water as mobile phase. Flow rate was set at 0.2 or 0.6 mL/min and the column temperature was at 30° or 40° C. 2 or 5 μL full loop sample injection was used.
Data processing was performed with Analyst™ 1.4.2 software package (Applied Biosystems, MA., USA). The corresponding MRM transition of this candidate was selected and used for peak configuration in Analyst 1.4.2 for semi-quantitation. The peak areas of test compound at different time points were expressed as a % of the peak area of test compound at time=0 min. The resulting % of intact (or remaining) test compound (average of 3 measurements with SD) was plotted against incubation time drug (Figure xx). In vitro half life (T1/2, min) was calculated from Equation 3 (Lu C, Li P, Gallegos R, Uttamsingh V, Xia C Q, Miwa G T, et al. Comparison of intrinsic clearance in liver microsomes and hepatocytes from rats and humans: evaluation of free fraction and uptake in hepatocytes. Drug Metab Dispos 2006; 34: 1600-5). T1/2=0.693/k(min) Equation 3: Where k is the slope of the plot Estimated in vitro clearance was determined from Equation 4: CLint, in vitro=V×0.693/T½ Equation 4: where V (μL/mg)=Volume of incubation/amount of microsomal protein in the incubation (μL/mg) Ames Test for Mutagenicity

[4] = HepG2, Table 6, mean (SD), read-out: IC50 (μM) HepG2
[5] = HepG2, further testing, 72 h, mean (SD), read-out: IC50 HepG2
[6] = HepG2, read-out: in vitro IC50 (horizontal line in FIGS. 14 and 15), cell line not stated
[7] = MDA-MB-231, 72 h, read-out: IC50 MDA-MB-231 (μM)
[8] = MDA-MB-231, 72 h, read-out: IC50MDA-MB-231 (μM)
[9] = MDA-MB-231, read-out: IC50 (μM) MDA MB 231

CCCCCCCCn1cc(CN(CC)CC)c2cc(-c3cnc(N)nc3)ccc21 [Compound 8-12, 5-(3-Diethylaminomethyl-1-octyl-1H-indol-5-yl)-pyrimidin-2-ylamine]
IC50 [1, 4]: 1.65 µM
IC50 [1, 5]: 1.65 µM
IC50 [1, 6]: 1.7 µM
solubility at 24 h (physchem): 156 µM and 64 µg/mL
Aqueous Solubility (pH 7.4) 24 hours (physchem; 24 h, pH 7.4): 155.9 (6.4) μM
solubility (physchem): ~65 µg/mL (≈ 159 µM)
solubility at 3 h (physchem): 166 µM (≈ 67.7 µg/mL)
IC50 [2, 7]: 2.48 µM
IC50 [2, 8]: 2.63 µM
IC50 [2, 9]: 2.63 µM
Half-life (min) [3]: 11.3 (0.4) min
Intrinsic Clearance (μL/min/mg) [3]: 204.0 (9.0) μL/min/mg
half-life [3]: 11.3 min
microsomal CLint [3]: 204 µL/min/mg

CCCCCCCCn1c2c(c3cc(-c4cnc(N)nc4)ccc31)CN(C)CC2 [Compound 305, 8-(2′-amino-pyrimidin-5′-yl)-2-methyl-5-n-octyl-1,2,3,4-tetrahydropyrido[4,3-b]indole]
IC50 [1, 5]: 1.73 µM
solubility at 24 h (physchem): 40.6 µM (≈ 15.9 µg/mL)
Solubility (μM) (physchem; 24 h, pH 7.4): 40.6 (1.75) μM
solubility (physchem): 20 µg/mL (≈ 51.1 µM)
solubility at 3 h (physchem): 49.5 µM (≈ 19.4 µg/mL)
IC50 [2, 7]: 5.65 µM
IC50 [2, 8]: 4.61 µM
half-life [3]: 31.6 min
microsomal CLint [3]: 76.6 µL/min/mg

CCCCCCCCn1cc(CC(N)=O)c2cc(-c3cccc(C)c3)ccc21 [Cysmethynil, 2-[5-(3-methylphenyl)-1-octyl-1H-indolo-3-yl]acetamide, reference compound]
IC50 [1, 4]: 21.8 µM
IC50 [1, 5]: 21.8 µM
IC50 [1, 6]: 22 µM
solubility at 24 h (physchem): < 1 µM
solubility at 3 h (physchem): < 1 µM
IC50 [2, 7]: 27.4 µM
IC50 [2, 8]: 26.8 µM
IC50 [2, 9]: 27.4 µM
Half-life (min) [3]: 44.8 (8.0) min
Intrinsic Clearance (μL/min/mg) [3]: 53.6 (9.0) μL/min/mg
half-life [3]: 44.8 min
microsomal CLint [3]: 53.6 µL/min/mg
